In US20250134909A1, “GEL COMPOSITION FOR PREVENTION OR TREATMENT OF ATOPIC DERMATITIS” (SHAPERON INC., priority 2021, published 2025):

Tested on: atopic dermatitis-induced animal model by DNCB
Test: Thickness of the epidermis and dermis (H&E), DNCB-induced atopic dermatitis model
Assay type: in vivo, mice
Conditions: 15th day, FIGS. 5 to 7; for dermal thickness: compared to the DNCB group and the normal Sham group; for skin epithelium thickness: compared to the DNCB group
Method: […] of a solution of 2,4-Dinitrochlorobenzene (DNCB) dissolved in acetone at a concentration of 1% or 2% was applied to the backs of mice with hair removed twice a day for 2 days, then on the 3rd day, a solution of […] containing 1% concentration of DNCB dissolved in acetone was applied twice daily, and additional applications of a solution of […] containing 1% concentration of DNCB dissolved in acetone or a solution diluted 10 times were applied twice daily on the shaved backs of mice until the 10th to 11th day starting from the day of the initial application of DNCB solution, to induce atopic dermatitis (FIG. 1).
To compare and confirm the therapeutic effects of 0.5% HY209_HA gel and 5% HY209_PEG gel on atopic dermatitis through measurement of the thickness of the epidermis and dermis in the atopic dermatitis-induced animal model of <Example 2>, each individual in the groups treated with 0.5% HY209_HA Gel, 5% HY209_PEG gel, Maxidex ointment, Eucrisa ointment, and Protopic ointment in <Experimental Example 1> had their atopic dermatitis-induced areas scarified on the 15th day from the induction of atopic dermatitis, and the Sham (untreated) group, where atopic dermatitis was not induced, and the DNCB group, which was not treated after the induction of atopic dermatitis, were also scarified on the 15th day.
After collecting skin tissues from each group of mice, the tissue samples were sliced and then fixed in 10% formalin solution for 24 hours, then rinsed with distilled water, processed into paraffin blocks, and sectioned into […] thickness slices, these slices were stained with Hematoxylin and Eosin (H&E), and observed under an optical microscope, and then the thickness of the epithelium and dermis were measured using image analysis software and analyzed using analysis software.

SMILES | dermal thickness | skin epithelium thickness
N#Cc1ccc(Oc2ccc3c(c2)COB3O)cc1 [Crisaborole] | recovered close to that of the normal Sham group | significantly reduced
C=CC[C@@H]1/C=C(\C)C[C@H](C)C[C@H](OC)[C@H]2O[C@@](O)(C(=O)C(=O)N3CCCC[C@H]3C(=O)O[C@H](/C(C)=C/[C@@H]3CC[C@@H](O)[C@H](OC)C3)[C@H](C)[C@@H](O)CC1=O)[C@H](C)C[C@@H]2OC [FK506, Tacrolimus] | recovered close to that of the normal Sham group | significantly reduced
